The values below are quoted from earlier work in patent US20210169839A1, “PEDIATRIC IMMEDIATE-RELEASE FORMULATION OF THE POTASSIUM CHANNEL OPENER EZOGABINE” (Xenon Pharmaceuticals Inc., priority 2019, published 2021).

Molecules are shown by their SMILES. Like-named read-outs stand apart in the source and are kept apart here.

For one series, the system named is rodent seizure models. The conditions noted are these: battery of rodent seizure models.
Series [1] concerns KCNQ2-DEE.
In series [2] the test system is KCNQ2-DEE. This is another data set of the same source.

Take `CCOC(=O)Nc1ccc(NCc2ccc(F)cc2)cc1N` [Ezogabine, 2-amino-4-(4-fluorobenzylamino)-1-ethoxycarbonylaminobenzene]: the anti-convulsant activity result in the series on rodent seizure models was “broad spectrum activity”. In the series with KCNQ2-DEE [1] (case report of 11 patients), the serious adverse effects entry is given as “No serious adverse effects were observed”. The results for the “improvement in seizures and/or development” value in the series with KCNQ2-DEE [1] (infants treated before six months of age) and in the series with KCNQ2-DEE [1] (patients treated later than six months of age) were “three of the four” and “two of the seven”, respectively. Besides, in the series on KCNQ2-DEE [2] (eight children with KCNQ2-DEE), the “improvements in development or cognition” value is “all eight patients”. Moreover, in the series with KCNQ2-DEE [2] (patients with at least weekly seizures), the “Sustained improvement in seizure frequency” value is given as “five of the six”.
